The source of these data is PubChem BioAssay (NCI).

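These data come from cells grown in 96-well plates and exposed to compound for 48 hours at five concentrations. Abbreviation: GI50, concentration required for 50% inhibition of growth. TGI denotes the concentration required for complete inhibition of growth.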 Where only a bound is given, the exact number is not on record here.

Among the test systems are MALME-3M melanoma; PC-3 prostate; RPMI-8226 leukemia; MDA-MB-435; HOP-92 NSCLC; NCI/ADR-RES ovarian; CAKI-1 renal; U251 CNS; OVCAR-4 ovarian.
What all share (assay): growth of human tumour cells (NCI), 48 h

With `O=C(Nc1ccc(-c2nc(-c3cccc(OCCN4CCOCC4)c3)c(-c3ccnc(Br)c3)[nH]2)cc1)c1ccccc1`, the GI50 with MALME-3M melanoma is 1.55 µM; in the assay with PC-3 prostate it was 2.36 µM; with RPMI-8226 leukemia, 0.407 µM; in the assay on MDA-MB-435, 1.69 µM; with HOP-92 NSCLC, 2.01 µM; with NCI/ADR-RES ovarian, 5.2 µM. Besides, in the assay on CAKI-1 renal, the GI50 is 1.84 µM. Besides, the TGI with MALME-3M melanoma was 3.85 µM; with PC-3 prostate, over 100 µM; in the assay on RPMI-8226 leukemia, 2.47 µM; in the assay with MDA-MB-435, 3.76 µM; in the assay on HOP-92 NSCLC it was 8.16 µM; in the assay with NCI/ADR-RES ovarian, over 100 µM. Also, the TGI in the assay with CAKI-1 renal worked out at 5.27 µM.
In the case of `O=c1ncccn1C1OC(CO)C(O)C1O` (stereo unspecified), the TGI in the assay on MALME-3M melanoma, in the assay on RPMI-8226 leukemia, in the assay with U251 CNS, in the assay with HOP-92 NSCLC, with OVCAR-4 ovarian and in the assay with CAKI-1 renal was over 100 µM throughout.
With `O=C(O)CCNCCCCNCCC(=O)O`, the TGI in the assay on MALME-3M melanoma, with RPMI-8226 leukemia, in the assay with U251 CNS, in the assay with HOP-92 NSCLC, in the assay with OVCAR-4 ovarian and with CAKI-1 renal was over 100 µM in each case.
Regarding `CCCCCC[C@H](C)Nc1nc2ccccc2c2occc12`, the GI50 with PC-3 prostate was 14.8 µM; in the assay on RPMI-8226 leukemia, 3.74 µM; with MDA-MB-435 it was 14.7 µM; in the assay on U251 CNS, 9.94 µM; in the assay on HOP-92 NSCLC, 5.18 µM; in the assay with NCI/ADR-RES ovarian, 0.147 µM. Besides, the GI50 in the assay on CAKI-1 renal was 10.6 µM. Besides, the TGI was found to be 35.5 µM with PC-3 prostate; 44.3 µM in the assay with RPMI-8226 leukemia; 35.2 µM in the assay on MDA-MB-435; 21.7 µM in the assay on U251 CNS; 20.2 µM in the assay with HOP-92 NSCLC; 12.8 µM with NCI/ADR-RES ovarian. Besides, in the assay on CAKI-1 renal, the TGI stood at 26.3 µM.
`C=CCC1=C(C)C[C@@H]2CCC(=O)C=C12`: the TGI with MALME-3M melanoma, with RPMI-8226 leukemia, in the assay with U251 CNS, in the assay with HOP-92 NSCLC, in the assay with OVCAR-4 ovarian and in the assay on CAKI-1 renal was over 100 µM in each case.
Take `CC(C)CCCC(C)[C@H]1CCC2[C@@H]3CCC4Nc5c(cnn5-c5ccccc5)C[C@]4(C)C3CC[C@@]21C` (stereo partly specified): the TGI in the assay on MALME-3M melanoma was over 100 µM; with RPMI-8226 leukemia, over 100 µM; in the assay on U251 CNS, over 100 µM; with OVCAR-4 ovarian it was 80.1 µM; in the assay with CAKI-1 renal, 78.4 µM.
Take `C=CCO/N=C(\OC(=O)c1ccc([N+](=O)[O-])cc1)c1ccccc1`: the TGI in the assay on MALME-3M melanoma, in the assay on RPMI-8226 leukemia, in the assay on U251 CNS, in the assay on HOP-92 NSCLC, in the assay on OVCAR-4 ovarian and in the assay with CAKI-1 renal was over 100 µM each time.
Regarding `CC(C)(C)OC(=O)NCCCn1c2c(c3ccccc3c1=O)C(=O)c1ccccc1-2`, the GI50 in the assay on MALME-3M melanoma is 32.9 µM; in the assay with PC-3 prostate, 51.5 µM; with MDA-MB-435 it was over 100 µM; in the assay with U251 CNS, 11.5 µM; in the assay with HOP-92 NSCLC it was 12.5 µM; in the assay on NCI/ADR-RES ovarian it was 6.69 µM. The GI50 in the assay with CAKI-1 renal was 6.86 µM. The TGI in the assay with MALME-3M melanoma was over 100 µM; in the assay on PC-3 prostate, over 100 µM; with MDA-MB-435 it was over 100 µM; in the assay on U251 CNS, 28.3 µM; with HOP-92 NSCLC, 43.5 µM; in the assay with NCI/ADR-RES ovarian, 98.6 µM. In the assay with CAKI-1 renal, this compound showed a TGI of 22.2 µM.
With `S=c1nc(N/N=C/c2ccco2)c2cn[nH]c2[nH]1`, the GI50 in the assay on MALME-3M melanoma was over 100 µM; with PC-3 prostate it was 57.5 µM; in the assay on RPMI-8226 leukemia, 18.2 µM; in the assay with MDA-MB-435, 45.7 µM; in the assay with U251 CNS, over 100 µM; with HOP-92 NSCLC, 71.4 µM. Besides, the GI50 with NCI/ADR-RES ovarian was over 100 µM; in the assay with OVCAR-4 ovarian it was over 100 µM; in the assay on CAKI-1 renal it was 52.9 µM. Moreover, the TGI with MALME-3M melanoma, in the assay on PC-3 prostate, in the assay on RPMI-8226 leukemia, with MDA-MB-435, in the assay with U251 CNS and in the assay on HOP-92 NSCLC was over 100 µM in each case. Besides, the TGI with NCI/ADR-RES ovarian, in the assay on OVCAR-4 ovarian and in the assay on CAKI-1 renal was over 100 µM in each case.
`COc1ncnc(S(=O)(=O)c2ccc(N=C3C(=O)N(CN4CCN(c5cc6c(cc5F)c(=O)c(C(=O)O)cn6C5CC5)CC4)c4ccc(Cl)cc43)cc2)c1OC`: the GI50 in the assay on PC-3 prostate was 34.9 µM; in the assay with RPMI-8226 leukemia, 13.5 µM; with MDA-MB-435, over 50 µM; with U251 CNS, 18.7 µM; in the assay with HOP-92 NSCLC, over 50 µM; in the assay on NCI/ADR-RES ovarian it was over 50 µM. For the same compound, the GI50 with CAKI-1 renal was 12.7 µM. Also, the TGI in the assay with PC-3 prostate, with RPMI-8226 leukemia, in the assay on MDA-MB-435, with U251 CNS, with HOP-92 NSCLC and with NCI/ADR-RES ovarian was over 50 µM throughout. Further, the TGI in the assay with CAKI-1 renal was over 50 µM.
On to `O=C(c1ccccc1)c1c(NCC(O)CN2CCOCC2)n(Cc2ccccc2)c(=O)n(Cc2ccccc2)c1=O` (stereo unspecified), for which the GI50 is 48.8 µM in the assay on MALME-3M melanoma; 39.4 µM in the assay on PC-3 prostate; 24 µM in the assay on RPMI-8226 leukemia; 35.2 µM in the assay on MDA-MB-435; 29.2 µM in the assay with U251 CNS; 17.9 µM in the assay with HOP-92 NSCLC. Also, the GI50 was 2.17 µM with NCI/ADR-RES ovarian, over 45.4 µM in the assay on OVCAR-4 ovarian and 32.5 µM in the assay with CAKI-1 renal. The TGI is over 100 µM with MALME-3M melanoma; over 100 µM with PC-3 prostate; over 92.4 µM in the assay with RPMI-8226 leukemia; over 100 µM with MDA-MB-435; over 100 µM in the assay with U251 CNS; 70.8 µM in the assay with HOP-92 NSCLC. Also, the TGI with NCI/ADR-RES ovarian is over 27.4 µM; in the assay with OVCAR-4 ovarian it was over 95.3 µM; in the assay on CAKI-1 renal it was over 100 µM.
As to `Cc1ccc(S(=O)(=O)c2ccccc2[N+](=O)[O-])cc1`, the TGI in the assay on MALME-3M melanoma, in the assay on RPMI-8226 leukemia, in the assay on U251 CNS, with OVCAR-4 ovarian and with CAKI-1 renal was over 100 µM each time.
Consider `Cc1cc(N(CCC#N)CCC#N)ccc1N=Nc1ccc(Br)cc1`, for which the TGI in the assay on MALME-3M melanoma is over 100 µM; in the assay on RPMI-8226 leukemia, over 100 µM; in the assay with U251 CNS, over 53 µM; with OVCAR-4 ovarian, over 100 µM; in the assay on CAKI-1 renal it was over 51.4 µM.
